From ChEMBL document CHEMBL1201862, “PubChem BioAssay data set” (2004)
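Growth conditions: 96-well plates. Treatment: test compound, 48 hours, 5 concentrations. Analysis: linear interpolation between bracketing concentrations; unreached endpoints set to highest concentration. GI50 = concentration required for 50% inhibition of growth.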 Active and inactive are the calls of the source. Rule as the data show it: active = GI50 up to about 1.1 µM and inactive = higher.

Legend:
Assay in all cases: NCI tumour cell line growth inhibition, 48 h
NCI-H460 = tested on: NCI-H460
SR = tested on: SR
CAKI-1 = tested on: CAKI-1
U-251 = tested on: U-251
ACHN = tested on: ACHN
Malme-3M = tested on: Malme-3M
T47D = tested on: T47D
SF-295 = tested on: SF-295
OVCAR-3 = tested on: OVCAR-3
SNB-19 = tested on: SNB-19
A498 = tested on: A498
OVCAR-8 = tested on: OVCAR-8
OVCAR-4 = tested on: OVCAR-4
A549 = tested on: A549
MDA-N = tested on: MDA-N
IGROV-1 = tested on: IGROV-1
KM12 = tested on: KM12
BT-549 = tested on: BT-549
NCI/ADR-RES = tested on: NCI/ADR-RES

Row | SMILES | GI50 (NCI-H460) | GI50 (SR) | GI50 (CAKI-1) | GI50 (U-251) | GI50 (ACHN) | GI50 (Malme-3M) | GI50 (T47D) | GI50 (SF-295) | GI50 (OVCAR-3) | GI50 (SNB-19) | GI50 (A498) | GI50 (OVCAR-8) | GI50 (OVCAR-4) | GI50 (A549) | GI50 (MDA-N) | GI50 (IGROV-1) | GI50 (KM12) | GI50 (BT-549) | GI50 (NCI/ADR-RES)
1 | CC(=O)OCCCOCn1c(Cc2ccccc2)c(C)c(=O)[nH]c1=O | > 100 µM (inactive) | > 100 µM (inactive) | > 100 µM (inactive) | > 100 µM (inactive) | > 100 µM (inactive) | > 100 µM (inactive) | > 100 µM (inactive) | > 100 µM (inactive) | > 100 µM (inactive) | > 100 µM (inactive) | > 100 µM (inactive) | > 100 µM (inactive) | > 100 µM (inactive) | > 100 µM (inactive) | > 100 µM (inactive) | > 100 µM (inactive) | > 100 µM (inactive) | > 100 µM (inactive) | –
2 | Cc1ccc(SCC(CF)OCn2cc(F)c(=O)[nH]c2=O)cc1 (stereo not given) | > 100 µM (inactive) | > 100 µM (inactive) | > 100 µM (inactive) | > 100 µM (inactive) | > 100 µM (inactive) | > 100 µM (inactive) | > 100 µM (inactive) | > 100 µM (inactive) | > 100 µM (inactive) | > 100 µM (inactive) | > 100 µM (inactive) | > 100 µM (inactive) | > 100 µM (inactive) | > 100 µM (inactive) | > 100 µM (inactive) | > 100 µM (inactive) | – | – | > 100 µM (inactive)
3 | COC(=O)c1ccccc1CC1Cc2c(C)ccc(C)c2C1=O (stereo not given) | 30.2 µM (inactive) | – | 34.5 µM (inactive) | 33.8 µM (inactive) | 33.8 µM (inactive) | 22.4 µM (inactive) | 21.4 µM (inactive) | 28.7 µM (inactive) | 34.4 µM (inactive) | 37.9 µM (inactive) | 25.8 µM (inactive) | 42.1 µM (inactive) | 25.9 µM (inactive) | 40.2 µM (inactive) | – | 32 µM (inactive) | 23.6 µM (inactive) | 34.5 µM (inactive) | 18.3 µM (inactive)
4 | COc1ccc(NC(C)c2ccncc2)cc1 (stereo not given) | > 100 µM (inactive) | – | > 100 µM (inactive) | > 100 µM (inactive) | > 100 µM (inactive) | > 100 µM (inactive) | > 100 µM (inactive) | > 100 µM (inactive) | > 100 µM (inactive) | > 100 µM (inactive) | > 100 µM (inactive) | > 100 µM (inactive) | > 100 µM (inactive) | > 100 µM (inactive) | > 100 µM (inactive) | – | > 100 µM (inactive) | > 100 µM (inactive) | > 100 µM (inactive)
5 | c1cc2cc(Cc3ccc4[nH]ccc4c3)ccc2[nH]1 | 15.8 µM (inactive) | 5.78 µM (inactive) | 17.1 µM (inactive) | 15.4 µM (inactive) | 25.2 µM (inactive) | 15.2 µM (inactive) | 15.6 µM (inactive) | 31 µM (inactive) | 12.8 µM (inactive) | 21.5 µM (inactive) | 16.6 µM (inactive) | – | 7.74 µM (inactive) | 16.2 µM (inactive) | 12.9 µM (inactive) | 15.9 µM (inactive) | 14.2 µM (inactive) | 19.7 µM (inactive) | –
6 | O=C1N(c2ccccc2)N=C2c3ccncc3C3=NN(c4ccccc4)C(=O)C123 (stereo not given) | 5.32 µM (inactive) | 79.6 µM (inactive) | – | > 100 µM (inactive) | > 43.6 µM (inactive) | > 100 µM (inactive) | 2.26 µM (inactive) | 4.37 µM (inactive) | > 100 µM (inactive) | > 100 µM (inactive) | > 100 µM (inactive) | > 100 µM (inactive) | > 63 µM (inactive) | > 32.7 µM (inactive) | – | > 51.9 µM (inactive) | 0.556 µM (active) | > 48.4 µM (inactive) | > 27.4 µM (inactive)
7 | c1cc2c(cc1NC1=NCCO1)OCO2 | > 100 µM (inactive) | 64.3 µM (inactive) | > 100 µM (inactive) | > 100 µM (inactive) | > 100 µM (inactive) | > 100 µM (inactive) | > 100 µM (inactive) | > 100 µM (inactive) | > 100 µM (inactive) | > 100 µM (inactive) | > 100 µM (inactive) | > 100 µM (inactive) | > 100 µM (inactive) | > 100 µM (inactive) | 42.2 µM (inactive) | > 100 µM (inactive) | > 100 µM (inactive) | – | > 100 µM (inactive)
8 | CN(C)c1ccc(/C=C/c2ccnc3ccccc23)cc1N | 8.24 µM (inactive) | 2.21 µM (inactive) | – | 9.66 µM (inactive) | 10.3 µM (inactive) | 10.9 µM (inactive) | 0.547 µM (active) | 11 µM (inactive) | 2.32 µM (inactive) | 14.4 µM (inactive) | 10.4 µM (inactive) | 8.85 µM (inactive) | 10.5 µM (inactive) | 6.81 µM (inactive) | 3.1 µM (inactive) | – | 7.85 µM (inactive) | – | 13.1 µM (inactive)
9 | COC(=O)c1ccccc1Nc1ccccc1C(=O)OC | > 100 µM (inactive) | – | > 100 µM (inactive) | 83.6 µM (inactive) | > 100 µM (inactive) | 37.9 µM (inactive) | 44.2 µM (inactive) | 39.4 µM (inactive) | 79.6 µM (inactive) | > 100 µM (inactive) | 52.8 µM (inactive) | 89.7 µM (inactive) | 48.9 µM (inactive) | 93.1 µM (inactive) | > 100 µM (inactive) | 89.3 µM (inactive) | > 100 µM (inactive) | > 100 µM (inactive) | > 100 µM (inactive)
10 | Nc1cccc2nnccc12 | > 100 µM (inactive) | – | > 100 µM (inactive) | > 100 µM (inactive) | > 100 µM (inactive) | > 100 µM (inactive) | > 100 µM (inactive) | > 100 µM (inactive) | – | > 100 µM (inactive) | – | > 100 µM (inactive) | – | > 100 µM (inactive) | > 100 µM (inactive) | > 100 µM (inactive) | > 100 µM (inactive) | > 100 µM (inactive) | > 100 µM (inactive)
11 | O=C(CCl)N1CCN(c2ccccn2)CC1 | 19.3 µM (inactive) | 34.9 µM (inactive) | 19.3 µM (inactive) | 17.9 µM (inactive) | 31.6 µM (inactive) | 16.8 µM (inactive) | 13.2 µM (inactive) | > 10 µM (inactive) | – | 57.1 µM (inactive) | 17 µM (inactive) | 26.2 µM (inactive) | 15.6 µM (inactive) | > 10 µM (inactive) | 25.2 µM (inactive) | 21.3 µM (inactive) | 34.5 µM (inactive) | – | 27.2 µM (inactive)
12 | COC(=O)c1c2c(cc3c1CC1(C3)Cc3cc4c(c(C(=O)OC)c3C1)CCCC4)CCCC2 | – | – | – | > 100 µM (inactive) | > 100 µM (inactive) | > 100 µM (inactive) | > 100 µM (inactive) | > 100 µM (inactive) | > 100 µM (inactive) | – | > 100 µM (inactive) | > 100 µM (inactive) | > 100 µM (inactive) | > 100 µM (inactive) | > 100 µM (inactive) | > 100 µM (inactive) | > 100 µM (inactive) | – | > 100 µM (inactive)
13 | Cn1c(=O)sc2cc(C(=S)N3CCN(c4ccccc4)CC3)ccc21 | 51.9 µM (inactive) | 6.67 µM (inactive) | > 100 µM (inactive) | 16 µM (inactive) | 70.3 µM (inactive) | 42.3 µM (inactive) | – | 19.9 µM (inactive) | 54.8 µM (inactive) | 45.3 µM (inactive) | > 100 µM (inactive) | 38.4 µM (inactive) | – | – | > 100 µM (inactive) | 46.5 µM (inactive) | > 100 µM (inactive) | 60.7 µM (inactive) | 50 µM (inactive)
14 | N#Cc1c(-c2ccccc2)[nH]c2ccccc2c1=O | > 100 µM (inactive) | > 100 µM (inactive) | > 100 µM (inactive) | – | > 100 µM (inactive) | 41.3 µM (inactive) | – | 21.8 µM (inactive) | 83.6 µM (inactive) | 22.8 µM (inactive) | > 100 µM (inactive) | 97.9 µM (inactive) | > 100 µM (inactive) | 9.59 µM (inactive) | 33.4 µM (inactive) | 23.9 µM (inactive) | 47.9 µM (inactive) | 25.8 µM (inactive) | > 100 µM (inactive)
15 | Oc1c(OCc2nnc(CCCCCCCCc3nnc(COc4ccc5ccccc5c4O)o3)o2)ccc2ccccc12 | > 100 µM (inactive) | – | 29.8 µM (inactive) | 41.7 µM (inactive) | > 100 µM (inactive) | > 100 µM (inactive) | – | > 100 µM (inactive) | – | 39.9 µM (inactive) | > 100 µM (inactive) | – | > 100 µM (inactive) | 57.3 µM (inactive) | > 100 µM (inactive) | – | > 100 µM (inactive) | > 100 µM (inactive) | 64 µM (inactive)
16 | NC(Cc1c2ccccc2cc2ccccc12)C(=O)O (stereo not given) | 59.8 µM (inactive) | 68.9 µM (inactive) | 62.2 µM (inactive) | > 100 µM (inactive) | 83 µM (inactive) | 80.7 µM (inactive) | > 100 µM (inactive) | > 100 µM (inactive) | > 100 µM (inactive) | > 100 µM (inactive) | – | 8.09 µM (inactive) | > 100 µM (inactive) | > 100 µM (inactive) | – | 48.3 µM (inactive) | > 100 µM (inactive) | – | > 100 µM (inactive)
17 | CNc1cc(OCc2ccccc2)c(OC)cc1C(=O)N1CCC[C@H]1CO | – | – | > 100 µM (inactive) | > 100 µM (inactive) | > 100 µM (inactive) | > 100 µM (inactive) | > 100 µM (inactive) | > 100 µM (inactive) | – | > 100 µM (inactive) | > 100 µM (inactive) | > 100 µM (inactive) | 70.1 µM (inactive) | > 100 µM (inactive) | > 100 µM (inactive) | > 100 µM (inactive) | > 100 µM (inactive) | > 100 µM (inactive) | > 100 µM (inactive)
